According to the supplement of paper PMC4862054:

How the values were obtained:
Experiment in all cases: drug sensitivity score (DSS), CellTiter-Glo (DSS (AUC-based score)); higher = stronger drug effect (viability inhibition or cytotoxicity); extreme values may be limits of the assay
Conditions in all cases: incubation time: 72 h
HCC1599 = tested on: HCC1599
Procedure, shortened: (§1)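 The area under the fitted dose-response curve was used to calculate the drug sensitivity score. Cells from breast cancer lines were incubated for 72 h in 384-well plates with compound at 5 concentrations spaced 10-fold over a 10,000-fold range specific to each compound. Plates were read for CellTox Green and then CellTiter-Glo, and normalised to 0.1 % DMSO and a positive kill control.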

CAL-85-1 = tested on: CAL-85-1
Procedure, shortened: as §1

CAL-51 = tested on: CAL-51
Procedure, shortened: as §1

CAL-148 = tested on: CAL-148
Procedure, shortened: as §1

CAL-120 = tested on: CAL-120
Procedure, shortened: as §1

MFM-223 = tested on: MFM-223
Procedure, shortened: as §1

MDA-MB-453 = tested on: MDA-MB-453
Procedure, shortened: as §1

Hs578T = tested on: Hs578T
Procedure, shortened: as §1

HCC1937 = tested on: HCC1937
Procedure, shortened: as §1

HDQ-P1 = tested on: HDQ-P1
Procedure, shortened: as §1

SK-BR-3 = tested on: SK-BR-3
Procedure, shortened: as §1

Structure (SMILES) | drug sensitivity score (HCC1599) | drug sensitivity score (CAL-85-1) | drug sensitivity score (CAL-51) | drug sensitivity score (CAL-148) | drug sensitivity score (CAL-120) | drug sensitivity score (MFM-223) | drug sensitivity score (MDA-MB-453) | drug sensitivity score (Hs578T) | drug sensitivity score (HCC1937) | drug sensitivity score (HDQ-P1) | drug sensitivity score (SK-BR-3)
Cn1cc(C2=C(c3cn(C4CCN(Cc5ccccn5)CC4)c4ccccc34)C(=O)NC2=O)c2ccccc21 [Enzastaurin] | 0 | 0 | 0 | 0 | 0 | 0 | 0 | 0 | 0 | 0 | 0
Nc1ccn([C@@H]2O[C@H](CO)[C@@H](O)C2(F)F)c(=O)n1 [Gemcitabine] | 12.8 | 12.4 | 16.7 | 10.6 | 3.04 | 0 | 4.36 | 4.8 | 0 | 1.57 | 13.6
O=C(O)CNC(=O)c1c(O)c2ccccc2n(Cc2ccccc2)c1=O [IOX-2] | 0 | 0 | 3.96 | 0 | 0 | 0 | 0 | 0 | 0 | 0 | 0
CCn1c(C(=O)N(C2CC2)C2CC2)cc2c3c(ncn3C)c(Nc3cc(C)n(C)n3)nc21 | 0 | 0 | 0 | 0 | 0 | 0 | 0 | 0 | 0 | 0 | 0
CC1(COc2ccc3c(c2)ncn3-c2ccc3cccc(N4CCC(N)CC4)c3n2)COC1 [Crenolanib] | 0.696 | 4.49 | 6.45 | 4.01 | 0 | 0 | 3.06 | 4.07 | 0.864 | 3.33 | 4.21
CC(C)n1cnc2c(NCCc3ccc(O)cc3)nc(-c3csc4ccccc34)nc21 [StemRegenin 1] | 0 | 0 | 0 | 0 | 0 | 1.58 | 0.255 | 0 | 1.53 | 1.2 | 0
CN[C@@H](C)C(=O)N[C@H]1CN(C(=O)CC(C)C)CC[C@H]2CC[C@@H](C(=O)NC(c3ccccc3)c3ccccc3)N2C1=O [AT-406] | 0 | 7.99 | 0 | 0 | 0 | 0 | 4.36 | 0 | 0 | 2.18 | 0
CO[C@@H]1[C@H](N(C)C(=O)c2ccccc2)C[C@H]2O[C@]1(C)n1c3ccccc3c3c4c(c5c6ccccc6n2c5c31)C(=O)NC4 [Midostaurin] | 0 | 2.25 | 15.9 | 0 | 9.74 | 3.44 | 0 | 15.7 | 7.38 | 6.88 | 7.66
CC(C)(C)c1nc(-c2cccc(NS(=O)(=O)c3c(F)cccc3F)c2F)c(-c2ccnc(N)n2)s1 [Dabrafenib] | 0 | 0 | 0 | 0 | 8.71 | 0 | 0 | 0.389 | 0 | 0 | 0
Cc1nc(C(=O)NCC(=O)O)c(O)c2ccc(Oc3ccccc3)cc12 [FG-4592] | 0 | 0 | 0 | 0 | 0 | 0 | 0 | 0 | 0 | 0 | 0
C/C(=C\c1csc(C)n1)[C@@H]1C[C@@H]2O[C@]2(C)CCC[C@H](C)[C@H](O)[C@@H](C)C(=O)C(C)(C)[C@@H](O)CC(=O)N1 [Ixabepilone] | 0 | 2.2 | 14.8 | 0 | 0 | 0 | 0 | 0 | 0 | 0 | 0
CC(C)C[C@H](NC(=O)[C@@H](COC(C)(C)C)NC(=O)[C@H](Cc1ccc(O)cc1)NC(=O)[C@H](CO)NC(=O)[C@H](Cc1c[nH]c2ccccc12)NC(=O)[C@H](Cc1cnc[nH]1)NC(=O)[C@@H]1CCC(=O)N1)C(=O)N[C@@H](CCCNC(=N)N)C(=O)N1CCC[C@H]1C(=O)NNC(N)=O [Goserelin] | 0 | 0 | 0 | 0 | 0 | 0 | 0 | 0 | 0 | 0 | 0
COc1ccc(S(=O)(=O)Nc2cccnc2Nc2ccc(O)cc2)cc1 [ABT-751] | 11.2 | 12.2 | 2.26 | 3.29 | 7.83 | 7.28 | 10.5 | 10.9 | 2.93 | 5.44 | 13.1
CO[C@@]12[C@H](COC(N)=O)C3=C(C(=O)C(C)=C(N)C3=O)N1C[C@@H]1N[C@@H]12 [Mitomycin C] | 0 | 2.91 | 10.5 | 0 | 0.335 | 0 | 0 | 0 | 0 | 0.633 | 1.42
CC(O)(CS(=O)(=O)c1ccc(F)cc1)C(=O)Nc1ccc(C#N)c(C(F)(F)F)c1 (stereo unspecified) [Bicalutamide] | 0 | 0 | 0 | 0 | 0 | 0 | 0.186 | 0 | 0 | 0 | 0
CCNC(=O)c1noc(-c2cc(C(C)C)c(O)cc2O)c1-c1ccc(CN2CCOCC2)cc1 [NVP-AUY922] | 3.99 | 14.1 | 15.7 | 12.5 | 9.4 | 14.9 | 12.4 | 11 | 13.8 | 17.4 | 16.7
